Where “and” joins values, the source holds several entries; their conditions need not be identical. Equal entries are not always repeated. Entries after “also recorded” stand apart in the source; their conditions may differ.
Experiments:
T-Cell = test: T-cell proliferation; assay type: cell-based; set-up: key: NE = No Effect; details: Table II summary
[1] = tested on: infant foreskin fibroblasts; test: Fibroblast chemotaxis in modified Boyden chambers (incl. checkerboard and deactivation studies); assay type: cell-based, human; details: for Mean Fibroblasts per 20 OIF + SEM: Experiment 1, lower compartment: TGF-β1 50 pg/ml, peptide 368-374 1.4 × 10^-5 M, peptide 364-378 6.7 × 10^-7 M, fibronectin 20 μg/ml; for fibroblast chemotaxis / migration (in words): peptide in lower compartment of modified Boyden chamber; for chemotactic response of fibroblasts to peptide with fibronectin in upper chamber (in words): unrelated chemoattractant fibronectin in the upper chamber
Description: Target cells used in in vitro chemotaxis assays were infant foreskin fibroblasts obtained by establishing monolayer cultures from explants of tissue. Cells were maintained in Eagle's minimum essential medium (MEM) supplemented with non-essential amino acids, antibiotics, 50 ug/ml ascorbic acid, and 9% fetal calf serum (FCS). Cells were passaged by trypsinization every 3-5 days.
Infant foreskin fibroblasts were harvested from monolayer culture by gentle trypsinization, washed twice in serum-free Eagles's MEM and adjusted to a final concentration of 250,000 cells/ml. The cell suspension (0.4 ml) was added to the upper compartments of blind well modified Boyden chemotaxis chambers. The peptides of the invention being assayed for chemotactic activity were solubilized in glycylglycine (0.015M) buffered NaCl (0.14M), pH 7.2, hereinafter referred to as GGBS, and diluted 50% with serum-free MEM. Test substances were added to the lower compartment of the chemotaxis chambers. Gelatin-treated polycarbonate filters (8 micron pore size) were interposed between the lowest compartment and the upper cell compartment. Loaded chambers were incubated at 37° C. in a humidified atmosphere containing 5% CO2 for 150 minutes. After incubation, the chambers were disassembled, the filters removed, stained with hematoxylin, and mounted on glass cover slips. Fibroblast chemotaxis was quantitated by counting the number of fibroblasts in 20 oil immersion fields (OIF) that migrated and adhered to the lower surface of each filter. Samples were tested in quadruplicate and results are expressed as mean number of fibroblasts per 20 OIF±standard error of the mean (SEM). Chemotaxis neutralization studies were performed by adding TGF-β1 or fibronectin to the upper cell compartment and testing for effects on fibroblast migration to the TGF-β peptides.
Zigmond-Hirsch checkerboard analysis (Zigmond & Hirsch, J. Exptl. Med. 137:387, 1972) was performed to determine whether the 7-mer peptide 368-374 (Val Tyr Tyr Val Gly Arg Lys) induced chemotaxis of fibroblasts, monocytes and neutrophils.
Deactivation studies were utilized to determine whether the peptides of the invention containing the 7-mer peptide amino acid sequence induced chemotaxis via cellular receptors and mechanisms utilized by intact TGF-β.

guinea pig skin = test: In vivo fibrosis assay, intradermal injection into guinea pig skin; set-up: species or system Guinea pigs (Hartley strain); details: for Histologic Score (degree of fibrosis), Peptide site: 400 μg peptide in 1.7 mg type I collagen carrier, 100 μl intradermal, 9 days, one value per guinea pig, scale 0 to 4; for fibrogenic response / fibrosis in guinea pig skin (in words): intradermal injection of peptide in collagen carrier
Description: The ability of the peptides to induce cellular chemotaxis and a fibrogenic response (fibroblast proliferation and collagen synthesis) in vivo may be measured by intradermal injection of the peptides into the skin of guinea pigs. Generally, the in vivo, guinea pig skin studies were carried out according to the following protocol:
8 mg/cc stocks of the peptides according to the present invention in Dulbecco's PBS were sterile filtered using a 0.45μ syringe filter. PBS plus ZYDERM™ collagen (Collagen Corp., Inc.) was used as a control. Peptide stocks were diluted 1:1 with ZYDERM™ collagen (35 mg/ml), resulting in a 4 mg/ml peptide-collagen suspension. Peptide-collagen suspensions were kept on ice at all times and drawn up in 1 cc syringes fitted with 27 or 28 gauge needles.
(§1) Guinea pigs (Hartley strain, female, weanlings) were shaved on the left and right sides of their abdomens. 100 μl of a suspension of peptide-collagen was injected intradermally in one site on each side of each guinea pig. Each site was circled with an indelible ink pen. Pigs were remarked after 3 days. At appropriate times after injection, guinea pigs were sacrificed via CO2 narcosis. Animals were shaved and a depilatory was used to remove remaining stubble. Injection sites were excised using a skin biopsy punch (6 mm). Tissue was placed in vials with 10% neutral buffered formalin. Sections were processed for staining with H+E and Masson's Trichrome.
8 mg/cc stocks of TGF-β1 peptides in Dulbecco's PBS were sterile filtered using a 0.45μ syringe filter. PBS plus ZYDERM™ (Collagen Corp., Inc.) was used as a control. Peptide stocks were diluted 1:1 with ZYDERM™ collagen (35 mg/ml) resulting in a 4 mg/ml peptide-collagen suspension. Peptide-collagen suspensions were kept on ice at all times and drawn up in 1 cc syringes fitted with 27 or 28 gauge needles.
as §1, with “of” for “of a”, “peptide-collagenwas” for “peptide-collagen was”, “straining” for “staining”
In vivo fibrosis assays were performed. Guinea pigs were injected intradermally with 400 μg of either peptide VYYVGRK (SEQ ID NO. 1) or peptide PLPIVYYVGRKPKVE (SEQ ID NO. 6) in a 100 μl volume of saline containing type I bovine collagen carrier 1.7 mg (zyderm, Celtrex Corp. Palo Alto, Calif.). As a control, at a distant site on the same guinea pig, the collagen carrier plus saline was injected intradermally as a control. Nine days later, the animals were sacrificed, and the skin sectioned through the injection sites was processed for histology using Mason-Trichrome to stain collagen fibers. The degree of fibrosis was assessed at 400×magnification to determine degree of replacement of surrounding subcutaneous fat with newly synthesized collagen. FIG. 15 is a Mason-Trichrome, 400×[…] of 9 day post intradermal injection of guinea pig skin with 100 μl, 400 μg peptide PLPIVYYVGRKPKVE ([…]) in collagen carrier (1.7 mg). There is marked (score of 4) replacement of fat cells with newly synthesized collagen in the subcutaneous fatty layer. Fibroblasts are noted scattered throughout what was once subcutaneous fatty layer. FIG. 16 is a Mason-Trichrome 400×magnification of 9 days post intradermal injection of the same guinea pig as in […] at a distant site with saline and collagen carrier as a control. Note minimal (score of 1) replacement of fat cells with newly synthesized collagen. Few fibroblasts are visible in the subcutaneous fatty layer. […]

fibroblasts = test: Hyaluronate production by fibroblasts; assay type: cell-based; set-up: key to FIBROBLAST EFFECTS Hyaluronate: NE = No Effect
[2] = Media added to upper compartment
[3] = TGF-β1 (50 pg/ml) added to upper compartment

Substance	T-Cell Proliferation (T-Cell)	Mean Fibroblasts per 20 OIF + SEM [1, 2] [Fibroblasts per 20 OIF]	Mean Fibroblasts per 20 OIF + SEM [1, 3] [Fibroblasts per 20 OIF]	fibroblast chemotaxis / migration (in words) [1]	chemotactic response of fibroblasts to peptide with fibronectin in upper chamber (in words) [1]	Histologic Score (degree of fibrosis), Peptide site (guinea pig skin)	fibrogenic response / fibrosis in guinea pig skin (in words) (guinea pig skin)	other results
VYYVGRK [Peptide 368-374, 7-mer corresponding to amino acids 368-374 of TGF-β1]	NE	75 ± 2	23 ± 1	does stimulate fibroblast chemotaxis and synthesis of collagen and hyaluronic acid; also recorded: induced migration of fibroblasts, monocytes and neutrophils in a dose dependent fashion; also recorded: induced primarily chemotaxis of fibroblasts	No such inhibition was seen	1 (1 equals replacement of 10 to 25% of the fat cells with collagen)	did not induce	Fibroblasts per 20 OIF (mean ± SEM) ([1]; checkerboard: upper compartment 0, lower compartment 1.4 × 10^-6 M): 38 ± 2 Fibroblasts per 20 OIF; Fibroblasts per 20 OIF (mean ± SEM) ([1]; checkerboard: upper compartment 0, lower compartment 7.0 × 10^-6 M): 58 ± 5 Fibroblasts per 20 OIF; Fibroblasts per 20 OIF (mean ± SEM) ([1]; checkerboard: upper compartment 0, lower compartment 7.0 × 10^-7 M): 20 ± 3 Fibroblasts per 20 OIF; Fibroblasts per 20 OIF (mean ± SEM) ([1]; checkerboard: upper compartment 1.4 × 10^-6 M, lower compartment 0): 9 ± 1 Fibroblasts per 20 OIF; Fibroblasts per 20 OIF (mean ± SEM) ([1]; checkerboard: upper compartment 1.4 × 10^-6 M, lower compartment 1.4 × 10^-6 M): 9 ± 1 Fibroblasts per 20 OIF; Fibroblasts per 20 OIF (mean ± SEM) ([1]; checkerboard: upper compartment 1.4 × 10^-6 M, lower compartment 7.0 × 10^-6 M): 24 ± 2 Fibroblasts per 20 OIF; Fibroblasts per 20 OIF (mean ± SEM) ([1]; checkerboard: upper compartment 1.4 × 10^-6 M, lower compartment 7.0 × 10^-7 M): 10 ± 1 Fibroblasts per 20 OIF; Fibroblasts per 20 OIF (mean ± SEM) ([1]; checkerboard: upper compartment 7.0 × 10^-6 M, lower compartment 0): 7 ± 1 Fibroblasts per 20 OIF; Fibroblasts per 20 OIF (mean ± SEM) ([1]; checkerboard: upper compartment 7.0 × 10^-6 M, lower compartment 1.4 × 10^-6 M): 8 ± 1 Fibroblasts per 20 OIF; Fibroblasts per 20 OIF (mean ± SEM) ([1]; checkerboard: upper compartment 7.0 × 10^-6 M, lower compartment 7.0 × 10^-6 M): 11 ± 1 Fibroblasts per 20 OIF; Fibroblasts per 20 OIF (mean ± SEM) ([1]; checkerboard: upper compartment 7.0 × 10^-6 M, lower compartment 7.0 × 10^-7 M): 7 ± 1 Fibroblasts per 20 OIF; Fibroblasts per 20 OIF (mean ± SEM) ([1]; checkerboard: upper compartment 7.0 × 10^-7 M, lower compartment 0): 8 ± 1 Fibroblasts per 20 OIF; Fibroblasts per 20 OIF (mean ± SEM) ([1]; checkerboard: upper compartment 7.0 × 10^-7 M, lower compartment 1.4 × 10^-6 M): 24 ± 2 Fibroblasts per 20 OIF; Fibroblasts per 20 OIF (mean ± SEM) ([1]; checkerboard: upper compartment 7.0 × 10^-7 M, lower compartment 7.0 × 10^-6 M): 39 ± 4 Fibroblasts per 20 OIF; Fibroblasts per 20 OIF (mean ± SEM) ([1]; checkerboard: upper compartment 7.0 × 10^-7 M, lower compartment 7.0 × 10^-7 M): 10 ± 1 Fibroblasts per 20 OIF; fibroblast chemotaxis / migration (in words) ([1]; listed as VYYVGRKK): induced fibroblast chemotaxis at all of the concentration tested; synthesis of hyaluronic acid (in words) (fibroblasts): does stimulate fibroblast chemotaxis and synthesis of collagen and hyaluronic acid
PLPIVYYVGRKPKVE [Peptide 364-378, 15-mer peptide 364-378 of TGF-β1]	NE	122 ± 8	37 ± 5	induced migration of fibroblasts, monocytes and neutrophils in a dose dependent fashion	No such inhibition was seen	4 (4 equals 75 to 100% of fat cells replaced with collagen) and 3 (3 equals replacement of 50 to 75% of fat cells with collagen)	induced a fibrinogenic response	fibrogenic response / fibrosis in guinea pig skin (in words) (guinea pig skin; listed as PLPIVYYVGRKPKVE): extensive collagen synthesis
340-391: synthetic peptide corresponding to sequence 340-391 of TGF-β1; positive chemotactic control (VLALYNQHNPGASAAPCCVPQALEPLPIVYYVGRKPKVEQLSNMIVRSCKCS; printed: Val Leu Ala Leu Tyr Asn Gln His Asn Pro Gly Ala Ser Ala Ala Pro Cys Cys Val Pro Gln Ala Leu Glu Pro Leu Pro Ile Val Tyr Tyr Val Gly Arg Lys Pro Lys Val Glu Gln Leu Ser Asn Met Ile Val Arg Ser Cys Lys Cys Ser) [Peptide 340-391]				migrated in a dose dependent fashion			induced a fibrinogenic response	
YSKVLALYNQHNPGASAAPC (YSKVLALYNQHNPGASAAPC) [Peptide 337-356]				has the ability to induce fibroblast chemotaxis	No such inhibition was seen		induced a fibrinogenic response	FIBROBLAST EFFECTS Hyaluronate (fibroblasts; Table II summary): NE

From US5824647A, “Chemotactic wound healing peptides” (priority 1995, dated 1998)
